Laboratory results as given in patent US10294202B2, “Pyrrolidinones as herbicides” (FMC Corporation, priority 2013, dated 2019).

How the values were obtained:
goosegrass = assay: Test E preemergence herbicide test; format: in vivo, Eleusine indica; design: key: 0 = no effect, 100 = complete control
From the text: (§1) Seeds of plant species selected from corn (Zea mays), soybean (Glycine max), velvetleaf (Abutilon theophrasti), lambsquarters (Chenopodium album), wild poinsettia (Euphorbia heterophylla), pigweed, palmer (palmer pigweed, Amaranthus palmeri), waterhemp (common waterhemp, Amaranthus rudis), surinam grass (Brachiaria decumbens), crabgrass, large (large crabgrass, Digitaria sanguinalis), crabgrass, Brazil (Brazilian crabgrass, Digitaria horizontalis), panicum, fall (fall panicum, Panicum dichotomiflorum), foxtail, giant (giant foxtail, Setaria faberii), foxtail, green (green foxtail, Setaria viridis), goosegrass (Eleusine indica), johnsongrass (Sorghum halepense), ragweed (common ragweed, Ambrosia elatior), barnyardgrass (Echinochloa crus-galli), sandbur (southern sandbur, Cenchrus echinatus), arrowleaf […] rhombifolia), ryegrass, Italian (Italian ryegrass, Lolium multiflorum), dayflower, VA (Virginia dayflower, Commelina virginica), field bindweed (Convolvulus arvensis), morningglory (Ipomoea coccinea), nightshade (eastern black nightshade, Solanum ptycanthum), kochia (Kochia scoparia), nutsedge, yellow (yellow nutsedge, Cyperus esculentus), cocklebur (common cocklebur, Xanthium strumarium), smartweed (ladysthumb smartweed, Polygonum Persicaria) and beggarticks (hairy beggarticks, Bidens pilosa), were planted into a silt loam soil and treated preemergence with test chemicals formulated in a non-phytotoxic solvent mixture which included a surfactant. Treated plants and controls were maintained in a greenhouse for 21 days, after which time all species were compared to controls and visually evaluated. Plant response ratings, summarized in Table E, are based on a scale of 0 to 100 where 0 is no effect and 100 is complete control. A dash (-) response means no test result.

field poppy = assay: Test D pre-/postemergence herbicide test; format: in vivo, Papaver rhoeas; conditions: Postemergence, Field Poppy, scale 0 to 100
Procedure, shortened: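 Visual 0–100 ratings (0 = no effect, 100 = complete control) versus controls, made 7 to 21 days after treatment in a controlled growth environment. Test chemicals in surfactant-containing non-phytotoxic solvent were applied preemergence to silt loam-sown seeds and postemergence to plants 2–18 cm tall.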

surinam grass = assay: Test C pre-/postemergence herbicide test; format: in vivo, Brachiaria decumbens
Procedure, shortened: (§2)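 Response scores range from 0, meaning no effect, to 100, meaning complete control, assigned visually by comparison with controls roughly two weeks (13 to 15 days) after spraying. Applications were made preemergence to seeded loam–sand soil and postemergence to 1- to 4-leaf plants.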

kochia = assay: Test C pre-/postemergence herbicide test; format: in vivo, Kochia scoparia
Procedure, shortened: as §2

dayflower, VA = assay: Test E preemergence herbicide test; format: in vivo, Commelina virginica; design: key: 0 = no effect, 100 = complete control
From the text: as §1

[1] = Postemergence, 31 g ai/ha, scale 0 (no effect) to 100 (complete control)
[2] = Postemergence, 62 g ai/ha, scale 0 to 100 (0 no effect, 100 complete control)
[3] = Postemergence, 125 g ai/ha, scale 0 to 100 (0 no effect, 100 complete control)
[4] = Postemergence, 250 g ai/ha, scale 0 to 100 (0 no effect, 100 complete control)
[5] = Preemergence, 62 g ai/ha, scale 0 to 100
[6] = Preemergence, 125 g ai/ha, scale 0 to 100 (0 no effect, 100 complete control)

SMILES: O=C1NCC(c2ccc(F)c(F)c2)C1C(=O)Nc1cccc(F)c1F (stereo not drawn) [Compound 17, N-(2,3-difluorophenyl)-4-(3,4-difluorophenyl)-2-oxo-3-pyrrolidinecarboxamide]
- Plant response rating, Goosegrass (goosegrass; 16 g ai/ha): 0
- Plant response rating, Goosegrass (goosegrass; 31 g ai/ha): 0
- Plant response rating, Goosegrass (goosegrass; 62 g ai/ha): 0
- Plant response rating, Goosegrass (goosegrass; 125 g ai/ha): 0
- Plant response rating, Goosegrass (goosegrass; 250 g ai/ha): 35
- Plant response rating (field poppy; 16 g ai/ha): 0
- Plant response rating (field poppy; 31 g ai/ha): 0
- Plant response rating (field poppy; 62 g ai/ha): 0
- Plant response rating (field poppy; 125 g ai/ha): 0
- Plant response rating (field poppy; 250 g ai/ha): 0
- Plant response rating, Surinam Grass (surinam grass; [1]): 0
- Plant response rating, Surinam Grass (surinam grass; [2]): 0
- Plant response rating, Surinam Grass (surinam grass; [3]): 45
- Plant response rating, Surinam Grass (surinam grass; [4]): 60
- Plant response rating, Surinam Grass (surinam grass; [5]): 90
- Plant response rating, Surinam Grass (surinam grass; [6]): 90
- Plant response rating, Kochia (kochia; [1]): 0
- Plant response rating, Kochia (kochia; [2]): 0
- Plant response rating, Kochia (kochia; [3]): 0
- Plant response rating, Kochia (kochia; [4]): 5
- Plant response rating, Kochia (kochia; [5]): 50
- Plant response rating, Kochia (kochia; [6]): 60
- Plant response rating, Dayflower, VA (dayflower, VA; 16 g ai/ha): 0
- Plant response rating, Dayflower, VA (dayflower, VA; 31 g ai/ha): 0
- Plant response rating, Dayflower, VA (dayflower, VA; 62 g ai/ha): 0
- Plant response rating, Dayflower, VA (dayflower, VA; 125 g ai/ha): 0
- Plant response rating, Dayflower, VA (dayflower, VA; 250 g ai/ha): 0
